Molecules are shown by their SMILES. Bounds are passed on as bounds.

In the first assay the test system is Mus musculus. The assay is described as follows: Maximum weight lose in influenza A infected mice when treated by the compound at a dose of 1 mg/kg/day b.i.d. The assay is classed as functional.
For the compound `CC(=O)NC(C(=O)O)[C@@H]1CCC(=C2SCCCS2)C1` (mixture of isomers; form 1), the Max weight loss worked out at 8.7%.

For a further assay, the system named is Mus musculus. Description: Maximum weight lose in influenza A infected mice when treated by the compound at a dose of 0 mg/kg/day b.i.d. It counts as functional.
As to `CC(=O)NC(C(=O)O)[C@@H]1CCC(=C2SCCCS2)C1` (mixture of isomers; form 1), the Max weight loss turned out to be 27.5%.

For another assay, the system named is Mus musculus. Description: Maximum weight lose in influenza A infected mice when treated by the compound at a dose of 10 mg/kg/day b.i.d. The assay is classed as functional.
`CC(=O)NC(C(=O)O)[C@@H]1CCC(=C2SCCCS2)C1` (mixture of isomers; form 1): the Max weight loss is listed as 3.1%.

The target of the next assay is Neuraminidase (Influenza B virus (strain B/Lee/1940), UniProt P03474). Details: species or system Influenza B virus (strain: B/Lee/40).
Neuraminidase, sequence (P03474 whole entry): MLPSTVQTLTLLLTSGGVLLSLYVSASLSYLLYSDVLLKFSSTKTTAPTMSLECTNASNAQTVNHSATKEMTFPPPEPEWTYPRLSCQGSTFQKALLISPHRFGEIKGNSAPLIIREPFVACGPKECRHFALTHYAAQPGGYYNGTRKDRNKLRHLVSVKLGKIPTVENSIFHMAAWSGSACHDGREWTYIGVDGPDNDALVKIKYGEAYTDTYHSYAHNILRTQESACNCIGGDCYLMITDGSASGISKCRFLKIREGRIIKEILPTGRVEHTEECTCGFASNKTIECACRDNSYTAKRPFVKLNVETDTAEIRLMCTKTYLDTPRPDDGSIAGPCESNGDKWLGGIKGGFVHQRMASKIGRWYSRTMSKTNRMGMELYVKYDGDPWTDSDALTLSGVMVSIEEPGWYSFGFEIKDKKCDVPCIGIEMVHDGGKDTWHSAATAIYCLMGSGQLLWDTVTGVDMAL
For orientation: IC50 means the midpoint of a concentration-inhibition curve. A higher IC50 goes with weaker potency in that assay. Compound `CCCCC(C)NC(=O)C(NC(C)=O)[C@H]1CC(C(=O)O)C[C@@H]1N=C(N)N` (stereo partly specified) registered an IC50 of 37 µM.

`CCN(CC)C(=O)C(NC(C)=O)[C@H]1CC(C(=O)O)C[C@@H]1N=C(N)N` (stereo partly specified) returned an IC50 of 3 µM.

The compound `CC(=O)NC(C(=O)N1CCSCC1)[C@H]1CC(C(=O)O)C[C@@H]1N=C(N)N` (stereo partly specified) displayed a half-maximal inhibitory concentration (IC50) of 29.1 µM.

Take `CCCCN(C)C(=O)C(NC(C)=O)[C@H]1CC(C(=O)O)C[C@@H]1N=C(N)N` (stereo partly specified): the IC50 was found to be 18.4 µM.

For `CC(=O)NC(C(=O)N(C)C(C)C)[C@H]1CC(C(=O)O)C[C@@H]1N=C(N)N` (stereo partly specified), the IC50 was 6.8 µM.

`CCC1CCCCN1C(=O)C(NC(C)=O)[C@H]1CC(C(=O)O)C[C@@H]1N=C(N)N` (stereo partly specified) yielded an IC50 of 3.1 µM.

For the compound `CC(=O)NC(C(=O)N1CCCCC1)[C@H]1CC(C(=O)O)C[C@@H]1N=C(N)N` (stereo partly specified), the IC50 was 6.9 µM.

As to `CCCN(CCC)C(=O)C(NC(C)=O)[C@H]1C[C@](O)(C(=O)O)C[C@@H]1N=C(N)N` (stereo in doubt), the IC50 is 33 µM.

`CC(=O)NC(C(=O)NC(C)CCc1ccccc1)[C@H]1CC(C(=O)O)C[C@@H]1N=C(N)N` (stereo partly specified) gave an IC50 of 12.5 µM.

The compound `CC(=O)NC(C(=O)N1CCCC(C)C1)[C@H]1CC(C(=O)O)C[C@@H]1N=C(N)N` (stereo partly specified) returned an IC50 above 10 µM.

`CC(=O)NC(C(=O)O)[C@@H]1CCC(=C2SCCCS2)C1` (mixture of isomers; form 2) came in with an IC50 of 3 µM.

In turn, `CCN(Cc1ccccc1)C(=O)C(NC(C)=O)[C@H]1CC(C(=O)O)C[C@@H]1N=C(N)N` (stereo partly specified) displayed an IC50 above 30 µM.

`CCC(COC)NC(=O)C(NC(C)=O)[C@H]1CC(C(=O)O)C[C@@H]1N=C(N)N` (stereo partly specified) gave an IC50 of 20 µM.

For `CCCN(C)C(=O)C(NC(C)=O)[C@H]1CC(C(=O)O)C[C@@H]1N=C(N)N` (stereo partly specified), the IC50 stood at 6.2 µM.

As to `CC(=O)NC(C(=O)O)[C@@H]1CCC(=C2SCCCS2)C1` (single isomer, unassigned), the IC50 is 8.6 µM.

Compound `CCCCCCN(C)C(=O)C(NC(C)=O)[C@H]1CC(C(=O)O)C[C@@H]1N=C(N)N` (stereo partly specified) showed an IC50 above 30 µM.

Regarding `CCCCNC(=O)C(NC(C)=O)[C@H]1CC(C(=O)O)C[C@@H]1N=C(N)N` (stereo partly specified), inhibition was half-maximal at 46.8 µM (IC50).

`C=CCNC(=O)C(NC(C)=O)[C@H]1CC(C(=O)O)C[C@@H]1N=C(N)N` (stereo partly specified) gave an IC50 of 4.3 µM.

The compound `CCCC(C)NC(=O)C(NC(C)=O)[C@H]1CC(C(=O)O)C[C@@H]1N=C(N)N` (stereo partly specified) had an IC50 of 12.2 µM.

With `CCNC(=O)C(NC(C)=O)[C@H]1CC(C(=O)O)C[C@@H]1N=C(N)N` (stereo partly specified), it took 3.1 µM to reach half-maximal inhibition (IC50).

The compound `CCCN(CC)C(=O)C(NC(C)=O)[C@H]1CC(C(=O)O)C[C@@H]1N=C(N)N` (stereo partly specified) had an IC50 of 7 µM.

In the case of `CC(=O)NC(C(=O)N(C)CCc1ccccc1)[C@H]1CC(C(=O)O)C[C@@H]1N=C(N)N` (stereo partly specified), the IC50 stood at 26.7 µM.

Compound `CC(=O)NC(C(=O)O)[C@@H]1CCC(=C2SCCCS2)C1` (mixture of isomers; form 1) gave an IC50 of 3 µM.

`CCN(CC)C(=O)C(NC(C)=O)[C@H]1C[C@@H](C(=O)O)C[C@@H]1N=C(N)N` (stereo partly specified) displayed a 50% inhibitory concentration (IC50) of 1.5 µM.

Compound `CCN(CCO)C(=O)C(NC(C)=O)[C@H]1CC(C(=O)O)C[C@@H]1N=C(N)N` (stereo partly specified) displayed a 50% inhibitory concentration (IC50) above 30 µM.

Compound `CC(=O)NC(C(=O)NCCc1ccccc1)[C@H]1CC(C(=O)O)C[C@@H]1N=C(N)N` (stereo partly specified) showed an IC50 of 70.5 µM.

As for `CC(=O)NC(C(=O)N1CCC(C)CC1)[C@H]1CC(C(=O)O)C[C@@H]1N=C(N)N` (stereo partly specified), the IC50 was found to be 42.5 µM.

For the compound `CCCN(CCC)C(=O)C(NC(C)=O)[C@H]1CC(C(=O)O)C[C@@H]1N=C(N)N` (stereo partly specified), the IC50 worked out at 9.2 µM.

`CC(=O)NC(C(=O)N1CCC1)[C@H]1CC(C(=O)O)C[C@@H]1N=C(N)N` (stereo partly specified) had an IC50 of 8.4 µM.

The compound `CCCCC(CC)NC(=O)C(NC(C)=O)[C@H]1CC(C(=O)O)C[C@@H]1N=C(N)N` (stereo partly specified) returned an IC50 of 16 µM.

For `COCC(C)NC(=O)C(NC(C)=O)[C@H]1CC(C(=O)O)C[C@@H]1N=C(N)N` (stereo partly specified), the IC50 stood at 25.1 µM.

Consider `CC(=O)NC(C(=O)N1CCCCCC1)[C@H]1CC(C(=O)O)C[C@@H]1N=C(N)N` (stereo partly specified), for which the IC50 is 25.3 µM.

In turn, `CCC(CC)NC(=O)C(NC(C)=O)[C@H]1CC(C(=O)O)C[C@@H]1N=C(N)N` (stereo partly specified) registered an IC50 of 3 µM.

Compound `C=CCN(C)C(=O)C(NC(C)=O)[C@H]1CC(C(=O)O)C[C@@H]1N=C(N)N` (stereo partly specified) came in with an IC50 of 11.7 µM.

`CC(=O)NC(C(=O)N1CCCCC1C)[C@H]1CC(C(=O)O)C[C@@H]1N=C(N)N` (stereo partly specified) gave an IC50 of 10.5 µM.

The compound `CCCN(CC1CC1)C(=O)C(NC(C)=O)[C@H]1CC(C(=O)O)C[C@@H]1N=C(N)N` (stereo partly specified) yielded an IC50 of 24 µM.

As for `CC(=O)NC(C(=O)N1CC(C)CC(C)C1)[C@H]1CC(C(=O)O)C[C@@H]1N=C(N)N` (stereo partly specified), the IC50 is above 100 µM.

Take `CC(=O)NC(C(=O)N1CCCC1)[C@H]1CC(C(=O)O)C[C@@H]1N=C(N)N` (stereo partly specified): the IC50 came to 24 µM.

`CC(=O)NC(C(=O)N1CCOCC1)[C@H]1CC(C(=O)O)C[C@@H]1N=C(N)N` (stereo partly specified) gave an IC50 of 7.8 µM.

Compound `CCC(C)NC(=O)C(NC(C)=O)[C@H]1CC(C(=O)O)C[C@@H]1N=C(N)N` (stereo partly specified) showed an IC50 of 16.5 µM.

For `CC(=O)NC(C(=O)NC(C)CC(C)C)[C@H]1CC(C(=O)O)C[C@@H]1N=C(N)N` (stereo partly specified), the IC50 was 11.4 µM.

Compound `CCCC1CCCCN1C(=O)C(NC(C)=O)[C@H]1CC(C(=O)O)C[C@@H]1N=C(N)N` (stereo partly specified) returned an IC50 of 14.5 µM.

Take `CC(=O)NC(C(=O)NC(C)C)[C@H]1CC(C(=O)O)C[C@@H]1N=C(N)N` (stereo partly specified): the IC50 is 4.6 µM.

The target of a further assay is Neuraminidase (Influenza A virus (A/Puerto Rico/8/1934(H1N1)), UniProt P03468).
Neuraminidase (Influenza A virus (A/Puerto Rico/8/1934(H1N1)), UniProt P03468), sequence (P03468 whole entry): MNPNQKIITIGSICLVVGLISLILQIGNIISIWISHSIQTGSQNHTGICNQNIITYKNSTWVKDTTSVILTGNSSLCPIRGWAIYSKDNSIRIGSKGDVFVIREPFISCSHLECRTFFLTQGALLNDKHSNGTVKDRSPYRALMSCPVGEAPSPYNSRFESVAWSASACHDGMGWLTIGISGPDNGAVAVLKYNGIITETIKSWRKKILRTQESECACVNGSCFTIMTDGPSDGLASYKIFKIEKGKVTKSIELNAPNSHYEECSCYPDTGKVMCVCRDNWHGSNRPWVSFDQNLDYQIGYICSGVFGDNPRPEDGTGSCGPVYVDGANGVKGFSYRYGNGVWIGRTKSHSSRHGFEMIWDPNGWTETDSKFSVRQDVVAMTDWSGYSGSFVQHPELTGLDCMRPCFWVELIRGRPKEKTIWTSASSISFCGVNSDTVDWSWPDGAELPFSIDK
`CCCN(CCC)C(=O)C(NC(C)=O)[C@H]1C[C@](O)(C(=O)O)C[C@@H]1N=C(N)N` (mixture of isomers): the IC50 came to 2300 µM.

Compound `CCCN(CCC)C(=O)C(NC(C)=O)[C@H]1C[C@](O)(C(=O)O)C[C@@H]1N=C(N)N` (stereo in doubt) displayed an IC50 of 4.9 µM.

`CC(=O)NC(C(=O)O)[C@@H]1CCC(=C2SCCCS2)C1` (stereo in doubt) displayed an IC50 of 25 µM.

As for `CC(=O)NC(C(=O)O)[C@@H]1CCC(=C2SCCCS2)C1` (mixture of isomers; form 2), it took 0.06 µM to reach half-maximal inhibition (IC50).

Compound `CC(=O)NC(C(=O)O)[C@@H]1CCC(=C2SCCCS2)C1` (single isomer, unassigned) gave an IC50 of 0.043 µM.

`CC(=O)NC(C(=O)O)[C@@H]1CCC(=C2SCCCS2)C1` (mixture of isomers; form 1) had an IC50 of 0.007 µM.

`CCN(CC)C(=O)C(NC(C)=O)[C@H]1C[C@@H](C(=O)O)C[C@@H]1N=C(N)N` (stereo partly specified) had an IC50 of 0.007 µM.

On to `CCCN(CCC)C(=O)C(NC(C)=O)[C@H]1C[C@@](O)(C(=O)O)C[C@@H]1N=C(N)N` (stereo partly specified), for which the IC50 amounted to 0.47 µM.

For `CCN(CC)C(=O)C(NC(C)=O)[C@H]1C[C@@](O)(C(=O)O)C[C@@H]1N=C(N)N` (stereo partly specified), half-maximal inhibition (IC50) was put at 1.6 µM.

The subject of the next assay is Mus musculus. Description: Maximum weight lose in influenza A infected mice when treated by the compound at a dose of 0.1 mg/kg/day b.i.d. The assay is classed as functional.
`CC(=O)NC(C(=O)O)[C@@H]1CCC(=C2SCCCS2)C1` (mixture of isomers; form 1) gave a Max weight loss of 12.7%.

The values above are taken from ChEMBL document CHEMBL1149138 (J Med Chem, 2004).
